The record followed here is patent US20130079402A1, “Use of at Least One Dialkyl Thiosulfonate or Thiosulfinate for Reducing the Number of Apicomplexa in an Animal” (Pancosma S.A., priority 2010, published 2013).

In the test the test system is sporozoites of Eimeria tenella. Kind of test: Viability of Eimeria tenella sporozoites after 24 hours incubation with test compound (trypan blue exclusion). It is filed as cell-based. The note with it: for percentage inhibition (effectiveness): concentration of 10 ppm; for inhibition at 100 ppm: Eimeria tenella, read-out: percentage inhibition (inhibitory or destructive effect on the sporozoites). As to the method: The antiparasitic properties of the following compounds were tested: • a capsicum oleoresin (Capsicum frutescens pigment) containing 6% by weight of a mixture of capsaicin and dihydrocapsaicin; • carvacrol; • cinnamaldehyde; • curcumin; • anethole; • PTS (according to the invention); • PTSO (according to the invention); and • an extract (according to the invention) called “Garlicon 40” containing […] of organosulfur compounds characteristic of garlic/onion, 6.7% by weight of PTS and 34.3% by weight of PTSO.
A first series of samples consisting of an aqueous solution containing 100 ppm of the abovementioned test compounds, and a second series of samples containing only 10 ppm of these compounds, were prepared.
Next, in order to be able to test the effect of the abovementioned compounds on Eimeria, the following was carried out. Freshly sporulated oocysts were obtained from Eimeria tenella and were stored at 4° C. in a 2.5% (weight/volume) potassium dichromate solution until use.
The oocysts were then sterilized with bleach before isolating sporozoites. The walls of the oocysts were mechanically destroyed for 5 to 7 seconds using a ball mill having balls of 0.5 mm.
The product obtained was then incubated for 45 minutes at 41° C. in a PBS buffer solution containing 0.014 mol/l of taurodeoxycholic acid and 0.25% by weight of trypsin in order to release the sporozoites.
The fluids released by the excystation were filtered and the sporozoites collected were washed three times with RPMI-1640 medium with stirring at 2100 revolutions per minute for 10 minutes at 4° C.
Solutions of 10^6 sporozoites per milliliter were then prepared, and were left to incubate with the same volume of sample of test compound for 24 hours.
The viability of the sporozoites was then measured according to the trypan blue exclusion method.
The results can be seen on the appended single figure, in which the numbers located above each column indicate the percentage inhibition by the corresponding compound and the numbers which follow the name of the compound indicate its concentration.
A measurement was also carried out with a control solution (free of test compound) called “Control” on the figure.

Where [1] appears, read: concentration of 100 ppm, 24 hours incubation.

As a reminder, the inhibition is the percentage by which the read-out fell short of the control.

SMILES strings stand for the structures. Read-outs that look alike come from different tables or passages of the source. Some results are limits rather than exact numbers.

Regarding `CCCS[S+]([O-])CCC` (stereo not drawn) [PTS, di(n-propyl) thiosulfinate], the “percentage inhibition (effectiveness)” value (24 hours incubation) is 87%. Turning to `COc1cc(/C=C/C(=O)CC(=O)/C=C/c2ccc(O)c(OC)c2)ccc1O` [curcumin], under setting [1], the inhibition at 100 ppm was no less than 74%.

Take `CCCSS(=O)(=O)CCC` [PTSO, di(n-propyl) thiosulfonate]: the “effectiveness at 10 ppm compared with 100 ppm” value (10 ppm versus 100 ppm) is “higher effectiveness at 10 ppm than at 100 ppm”. In addition, the “percentage inhibition (effectiveness)” value (24 hours incubation) was determined as 61%. Take `Cc1ccc(C(C)C)cc1O` [carvacrol]: the inhibition at 100 ppm (24 h) was no less than 74%.

As to `O=CC=Cc1ccccc1` [cinnamaldehyde], the inhibition at 100 ppm under setting [1] is no less than 74%.
